From PMC9732253, “Inhibition of the Phosphatidylinositol-3 Kinase Pathway Using Bimiralisib in Loss-of-Function NOTCH1-Mutant Head and Neck Cancer” (The Oncologist, 2022)

Conditions: n = 8
Protocol: All patients received 140 mg bimiralisib (PQR309) orally once daily on 2 consecutive days followed by 5 days without treatment weekly until unacceptable toxicity, tumor progression, patient request for withdrawal, investigator judgment, or death.
Radiologic tumor assessments were performed using computed tomography at baseline and every 6 weeks. Safety was continuously monitored.

Nc1cc(C(F)(F)F)c(-c2nc(N3CCOCC3)nc(N3CCOCC3)n2)cn1 [Bimiralisib, 5-(4,6-dimorpholino-1,3,5-triazin-2-yl)-4-(trifluoromethyl)pyridin-2-amine]
General disorders and administration site conditions, Grade 1, total number of events: 6
General disorders and administration site conditions, Grade 2, patients: 1 (12.5) n (%)
General disorders and administration site conditions, Grade 2, total number of events: 1
General disorders and administration site conditions, Grade 3/4, patients: 1 (12.5) n (%)
General disorders and administration site conditions, Grade 3/4, total number of events: 1
Hemorrhage, Grade 1, patients: 0 n (%)
Hemorrhage, Grade 1, total number of events: 0
Hemorrhage, Grade 2, patients: 0 n (%)
Hemorrhage, Grade 2, total number of events: 0
Hemorrhage, Grade 3/4, patients: 1 (12.5) n (%)
Hemorrhage, Grade 3/4, total number of events: 1
Hyperglycemia, Grade 1, patients: 1 (12.5) n (%)
Hyperglycemia, Grade 1, total number of events: 1
Hyperglycemia, Grade 2, patients: 0 n (%)
Hyperglycemia, Grade 2, total number of events: 0
Hyperglycemia, Grade 3/4, patients: 2 (25.0) n (%)
Hyperglycemia, Grade 3/4, total number of events: 2
Hypocalcemia, Grade 1, patients: 0 n (%)
Hypocalcemia, Grade 1, total number of events: 0
Hypocalcemia, Grade 2, patients: 1 (12.5) n (%)
Hypocalcemia, Grade 2, total number of events: 1
Hypocalcemia, Grade 3/4, patients: 0 n (%)
Hypocalcemia, Grade 3/4, total number of events: 0
Hypotension, Grade 1, patients: 1 (12.5) n (%)
Hypotension, Grade 1, total number of events: 1
Hypotension, Grade 2, patients: 0 n (%)
Hypotension, Grade 2, total number of events: 0
Hypotension, Grade 3/4, patients: 0 n (%)
Hypotension, Grade 3/4, total number of events: 0
Infections and infestations, Grade 3/4, patients: 3 (37.5) n (%)
Injury, poisoning and procedural complications, Grade 1, patients: 1 (12.5) n (%)
Injury, poisoning and procedural complications, Grade 1, total number of events: 1
Injury, poisoning and procedural complications, Grade 2, patients: 0 n (%)
Injury, poisoning and procedural complications, Grade 2, total number of events: 0
Injury, poisoning and procedural complications, Grade 3/4, patients: 0 n (%)
Injury, poisoning and procedural complications, Grade 3/4, total number of events: 0
Investigations, Grade 1, patients: 3 (37.5) n (%)
Investigations, Grade 1, total number of events: 3
Investigations, Grade 2, patients: 0 n (%)
Investigations, Grade 2, total number of events: 0
Investigations, Grade 3/4, patients: 1 (12.5) n (%)
Investigations, Grade 3/4, total number of events: 2
Laryngeal stenosis, Grade 1, patients: 0 n (%)
Laryngeal stenosis, Grade 1, total number of events: 0
Laryngeal stenosis, Grade 2, patients: 0 n (%)
Laryngeal stenosis, Grade 2, total number of events: 0
Laryngeal stenosis, Grade 3/4, patients: 1 (12.5) n (%)
Laryngeal stenosis, Grade 3/4, total number of events: 1
Metabolism and nutrition disorders, Grade 1, patients: 1 (12.5) n (%)
Metabolism and nutrition disorders, Grade 1, total number of events: 1
Metabolism and nutrition disorders, Grade 2, patients: 2 (25.0) n (%)
Metabolism and nutrition disorders, Grade 2, total number of events: 3
Metabolism and nutrition disorders, Grade 3/4, patients: 2 (25.0) n (%)
Metabolism and nutrition disorders, Grade 3/4, total number of events: 2
Musculoskeletal and connective tissue disorders, Grade 1, patients: 1 (12.5) n (%)
Musculoskeletal and connective tissue disorders, Grade 1, total number of events: 2
Musculoskeletal and connective tissue disorders, Grade 2, patients: 0 n (%)
Musculoskeletal and connective tissue disorders, Grade 2, total number of events: 0
Musculoskeletal and connective tissue disorders, Grade 3/4, patients: 0 n (%)
Musculoskeletal and connective tissue disorders, Grade 3/4, total number of events: 0
Nausea, Grade 1, patients: 1 (12.5) n (%)
Nausea, Grade 1, total number of events: 1
Nausea, Grade 2, patients: 2 (25.0) n (%)
Nausea, Grade 2, total number of events: 2
Nausea, Grade 3/4, patients: 0 n (%)
Nausea, Grade 3/4, total number of events: 0
Neck pain, Grade 1, patients: 1 (12.5) n (%)
Neck pain, Grade 1, total number of events: 1
Neck pain, Grade 2, patients: 0 n (%)
Neck pain, Grade 2, total number of events: 0
Neck pain, Grade 3/4, patients: 0 n (%)
Neck pain, Grade 3/4, total number of events: 0
Nervous system disorders, Grade 1, patients: 1 (12.5) n (%)
Nervous system disorders, Grade 1, total number of events: 2
Nervous system disorders, Grade 2, patients: 1 (12.5) n (%)
Nervous system disorders, Grade 2, total number of events: 1
Nervous system disorders, Grade 3/4, patients: 0 n (%)
Nervous system disorders, Grade 3/4, total number of events: 0
Osteomyelitis acute, Grade 1, patients: 0 n (%)
Osteomyelitis acute, Grade 1, total number of events: 0
Osteomyelitis acute, Grade 2, patients: 0 n (%)
Osteomyelitis acute, Grade 2, total number of events: 0
Osteomyelitis acute, Grade 3/4, patients: 1 (12.5) n (%)
Osteomyelitis acute, Grade 3/4, total number of events: 1
Pain in jaw, Grade 1, patients: 1 (12.5) n (%)
Pain in jaw, Grade 1, total number of events: 1
Pain in jaw, Grade 2, patients: 0 n (%)
Pain in jaw, Grade 2, total number of events: 0
Pain in jaw, Grade 3/4, patients: 0 n (%)
Pain in jaw, Grade 3/4, total number of events: 0
Platelet count decreased, Grade 1, patients: 1 (12.5) n (%)
Platelet count decreased, Grade 1, total number of events: 1
Platelet count decreased, Grade 2, patients: 0 n (%)
Platelet count decreased, Grade 2, total number of events: 0
Platelet count decreased, Grade 3/4, patients: 0 n (%)
Platelet count decreased, Grade 3/4, total number of events: 0
Pneumonia aspiration, Grade 1, patients: 0 n (%)
Pneumonia aspiration, Grade 1, total number of events: 0
Pneumonia aspiration, Grade 2, patients: 0 n (%)
